Results published in patent publication US10195212B2, “Glucocorticoid-loaded nanoparticles for prevention of corneal allograft rejection and neovascularization” (The Johns Hopkins University, priority 2014, dated 2019).
Counter-ions that a name gives are not always drawn.

Experiments:
[1] = hydrocortisone = 1; cited from earlier work
[2] = In vivo ocular DSP levels after SC injection ([3H]-labeled DSP); design: species or system Sprague Dawley rat
Method: Nanoparticles were suspended in saline at 20 μCi/mL. […] 40 μL (˜0.8 μCi per eye) of same formulation was injected to both eyes of the same animal (Sprague Dawley rat). At the indicated time intervals, 2 h, 1 day, 3 day, 5 day and 7 day after injection, the rats were anesthetized by intramuscular injection of ketamine/xylazine solution. The animal was sacrificed after collecting two drops of blood from the tail vein.
The eye ball with conjunctiva tissue was carefully removed from rats and rinsed with PBS, dried by Kimwipe tissue. The anterior chamber humor, cornea, vitreous, retina and the remaining eye ball tissue were carefully dissected and collected. Both cornea and retina tissues were rinsed with PBS and dried with Kimwipe tissue. All the samples were weighed, dissolved with 2 mL of Solvable by incubation at 50° C. overnight. Blood samples were bleached with 0.2 ml H2O2 and 20 μL, 0.5M EDTA. 10 ml […] scintillation medium was added before counting the radioactivity in a scintillation counter. The results were expressed as a percentage of the injected dose and are the mean±sd of four eyes (2 animals) per data point. […] Total percentage of injected dose at the periocular tissue and the radioactivity per mg (or mL) of tissue were calculated.
Fifty μL (˜0.8 per eye) of the same formulation was administered to both eyes of the same animal (Sprague Dawley rat) through SC injection. At POD14, the rats under anesthesia were sacrificed after collecting two drops of blood from the tail vein. The aqueous, vitreous, and the remaining ocular tissues containing injection sites were carefully dissected and collected. All the samples were weighed and then dissolved with 2 mL of Solvable (Perkin Elmer, Waltham, Mass.) by incubation at 50° C. overnight. Blood samples were bleached with 0.2 mL H2O2 and 20 μL 0.5M EDTA. Ten milliliters of Ultima gold scintillation medium (Perkin Elmer, Waltham, Mass.) was added before counting the radioactivity in a scintillation counter (Perkin Elmer, Waltham, Mass.). The results were expressed as a percentage of the injected dose and are the mean±standard deviation (SD) of four eyes per data point. […] The total percentage of the injected dose at the injection sites and the radioactivity per mg of tissue or mL of blood were calculated.

[3] = system: transplanted corneal grafts; assay: Corneal allograft rejection after penetrating keratoplasty, weekly SC injection; assay type: in vivo, Lewis rats; settings: for survival rate of cornea grafts: weekly SC 50 μL at 1 mg DSP/mL
Method: All procedures performed with rats were approved by the Johns Hopkins University Animal Care and Use Committee. The Brown-Norway donor rats were sacrificed and the central corneal button of both eyes were removed with a 4.0-mm trephine and kept in physiological solution ready for use. The surgery was performed by a corneal surgeon (QP) under an operating microscope. The cornea recipient Lewis rats were anesthetized with an intramuscular injection of a mixture of Ketamine (80 mg/kg) and Xylazine (8 mg/kg). Repeated instillations of 0.5% tropicamide eye drops were used on Lewis rats for total pupil dilation before surgery. A paracentesis was performed before trephinization, and the anterior chamber was filled with hyaluronic acid. The corneal buttons were removed from the receptor Lewis rats with a 3.5-mm trephine. The donor corneal button was sutured to receptor cornea with 8 suture points.
All groups of animals were undertaken same treatment once every week until the failure of grafts or the end point of study (9 week).
The clinical observations with a slit lamp microscope were performed by two ophthalmologists (QP and LT) on post-operational (PO) 2 week for group 1 and group 2, PO 4 week for group 3 and PO 9 week for group 4. Three parameters were evaluated for the examination of the corneal grafts (cornea transparency, edema and neovascularization). The scoring for the parameters is presented below.
Intraocular pressure was monitored at PO 2 day, 1 week, 2 week, 4 week, 6 week, 8 week and 9 week after the surgery. IOP recorded for each eye is the average of three successful measurements. Animals at the end time points were sacrificed by CO2 and the eyes with PK surgery were enucleated. Eye tissues were fixed with 10% formalin for 24 h before embedding in paraffin. Sections (5 μm) were cut from through the direction of optical nerve and cornea, and stained with H&E.

C[C@]12CCC(=O)C=C1CC[C@@H]1[C@@H]2[C@@H](O)C[C@@]2(C)[C@H]1CC[C@]2(O)C(=O)CO [Hydrocortisone]
Relative Potency of Glucocorticoid [1]: 1

C[C@]12C=CC(=O)C=C1CC[C@@H]1[C@@H]2[C@@H](O)C[C@@]2(C)[C@H]1CC[C@]2(O)C(=O)CO [Prednisolone]
Relative Potency of Glucocorticoid [1]: 4

CC(=O)OCC(=O)[C@@]1(O)[C@H](C)C[C@H]2[C@@H]3C=C(C)C4=Cc5c(cnn5-c5ccccc5)C[C@]4(C)[C@H]3[C@@H](O)C[C@@]21C [Cortivazol]
Relative Potency of Glucocorticoid [1]: 50

C[C@@H]1C[C@H]2[C@@H]3CCC4=CC(=O)C=C[C@]4(C)[C@@]3(F)[C@@H](O)C[C@]2(C)[C@@]1(O)C(=O)COP(=O)(O)O [DSP, Dexamethasone 21-phosphate sodium salt]
DSP level in blood ([2]; PO 2 h, SC injection): ≤ 350 ng DSP per ml
total dose retained at the conjunctiva tissue ([2]; PO 2 h, single SC injection, ~0.08 mg DSP): Approximately 0.4%
DSP in anterior chamber and vitreous ([2]; PO 7 day after SC administration): not detectable
DSP at the conjunctiva tissue ([2]; PO day 1, single SC injection): almost no DSP can be detected
DSP levels at retina and cornea ([2]; SC injection): very low
time to clearance after SC injection ([2]; rat, in vivo, sc): up to 2 hours
survival rate of cornea grafts ([3]; PO 2 week): 100%
survival rate of cornea grafts ([3]; PO 3 week): 80%
histological examination of cornea tissues at end point ([3]; PO 4 week for DSP, PO 9 week for DSP-NP): swollen and thicker than the normal healthy cornea
time at which all grafts were rejected ([3]; PO, weekly SC injection): 4 week
cornea transparency (clinical observation) ([3]; weekly SC injection): as opaque as saline control and NP control groups
graft neovascularization (clinical observation) ([3]; weekly SC injection, versus control groups): less neovascularization
graft edema (clinical observation) ([3]; weekly SC injection, versus saline and NP control): significant less edema

C[C@]12C=CC(=O)C=C1CC[C@H]1[C@@H]3C[C@@H](O)[C@](O)(C(=O)CO)[C@@]3(C)C[C@H](O)[C@@]12F [Triamcinolone]
Relative Potency of Glucocorticoid [1]: 5
